Data on one compound can be found in US11186566B2, “Modulator of cystic fibrosis transmembrane conductance regulator, pharmaceutical compositions, methods of treatment, and process for making the modulator” (Vertex Pharmaceuticals Incorporated, priority 2016, dated 2021).

Entries after “also recorded” stand apart in the source; their conditions may differ. Read-outs that look alike come from different tables or passages of the source.

One data set in a line: Rat IV and PO PK studies. Format: in vivo, male Sprague-Dawley rats. Conditions: male, Sprague-Dawley, plasma. How it is done: 5C. Experimental Protocol for Rat IV and PO PK Studies
[…] […] Analyses of plasma and dose preparations were performed using LC/MS/MS.
Plasma concentration-time profiles of the tested compound in Sprague-Dawley rats at scheduled (nominal) sampling times were analyzed by noncompartmental pharmacokinetic methods using PK function within Watson LIMS software, Version 7.4.2 (Thermo Scientific Inc, Waltham, Mass.). AUC values were calculated using the linear trapezoidal rule.

The target of data set [1] is T1, F508del-CFTR (Homo sapiens (Human), UniProt P13569, DEL508-508). As to the kind of experiment: Ussing chamber chloride transport experiments in HBE cells. Format: cell-based. Conditions: Ussing Chamber, F508del/F508del-HBE cells. How it is done: Ussing chamber experiments were performed on polarized airway epithelial cells expressing F508del to further characterize the F508del modulators identified in the optical assays. Non-CF and CF airway epithelia were isolated from bronchial tissue, cultured as previously described (Galietta, L. J. V., Lantero, S., Gazzolo, A., Sacco, O., Romano, L., Rossi, G. A., & Zegarra-Moran, O. (1998) In Vitro Cell. Dev. Biol. 34, 478-481), and plated onto Costar® Snapwell™ filters that were precoated with NIH3T3-conditioned media. After four days the apical media was removed and the cells were grown at an air liquid interface for >14 days prior to use. […] CF-HBE were isolated from patients homozygous for […] or compound heterozygous for F508del with an different disease causing mutation on the other allele.
T1 sequence (P13569 other isoform, or with tags, fused parts or gaps del F508-F508): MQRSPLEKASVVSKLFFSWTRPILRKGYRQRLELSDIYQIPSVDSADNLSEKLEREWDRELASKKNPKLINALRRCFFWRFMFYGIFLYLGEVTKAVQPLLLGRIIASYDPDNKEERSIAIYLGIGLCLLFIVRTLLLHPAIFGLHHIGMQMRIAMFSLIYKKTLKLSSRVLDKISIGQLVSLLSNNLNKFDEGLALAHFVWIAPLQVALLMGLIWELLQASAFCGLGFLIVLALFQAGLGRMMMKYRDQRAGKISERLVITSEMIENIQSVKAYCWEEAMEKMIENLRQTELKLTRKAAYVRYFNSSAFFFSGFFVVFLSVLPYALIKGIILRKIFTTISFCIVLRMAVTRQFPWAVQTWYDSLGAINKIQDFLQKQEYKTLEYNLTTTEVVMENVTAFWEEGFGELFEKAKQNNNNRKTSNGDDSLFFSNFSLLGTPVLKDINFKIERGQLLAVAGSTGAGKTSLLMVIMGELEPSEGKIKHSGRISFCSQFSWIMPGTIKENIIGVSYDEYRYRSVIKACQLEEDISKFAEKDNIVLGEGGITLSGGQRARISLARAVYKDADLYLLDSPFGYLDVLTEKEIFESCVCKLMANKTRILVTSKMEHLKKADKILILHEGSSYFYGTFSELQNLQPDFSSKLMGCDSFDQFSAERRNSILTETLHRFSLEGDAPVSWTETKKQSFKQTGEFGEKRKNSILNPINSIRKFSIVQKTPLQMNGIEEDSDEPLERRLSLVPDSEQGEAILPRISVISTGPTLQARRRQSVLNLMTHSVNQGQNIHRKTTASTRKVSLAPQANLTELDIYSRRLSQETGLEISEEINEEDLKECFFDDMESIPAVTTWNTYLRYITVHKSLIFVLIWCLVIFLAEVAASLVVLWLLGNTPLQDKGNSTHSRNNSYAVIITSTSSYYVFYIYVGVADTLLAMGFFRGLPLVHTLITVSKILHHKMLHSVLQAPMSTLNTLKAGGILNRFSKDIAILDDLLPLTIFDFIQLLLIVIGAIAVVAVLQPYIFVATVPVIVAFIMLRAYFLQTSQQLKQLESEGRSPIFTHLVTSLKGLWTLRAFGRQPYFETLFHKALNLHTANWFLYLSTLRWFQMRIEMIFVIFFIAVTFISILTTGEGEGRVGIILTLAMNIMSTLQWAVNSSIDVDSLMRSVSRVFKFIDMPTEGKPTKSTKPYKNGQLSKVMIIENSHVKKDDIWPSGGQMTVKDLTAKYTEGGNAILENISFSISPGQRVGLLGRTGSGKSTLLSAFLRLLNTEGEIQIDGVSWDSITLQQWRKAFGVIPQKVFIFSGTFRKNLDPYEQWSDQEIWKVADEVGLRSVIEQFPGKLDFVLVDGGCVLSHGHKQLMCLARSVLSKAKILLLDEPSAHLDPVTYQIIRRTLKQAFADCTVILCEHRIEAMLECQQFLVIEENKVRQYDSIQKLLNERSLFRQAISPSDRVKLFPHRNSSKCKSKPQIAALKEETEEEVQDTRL
HBE grown on Costar® Snapwell™ cell culture inserts were mounted in an Ussing chamber (Physiologic Instruments, Inc., San Diego, Calif.), and the transepithelial resistance and short-circuit current in the presence of a basolateral to apical Cl^− gradient (ISC) were measured using a voltage-clamp system (Department of Bioengineering, University of Iowa, Iowa). Briefly, HBE were examined under voltage-clamp recording conditions (Vhold=0 mV) at 37° C. The basolateral solution contained (in mM) 145 NaCl, 0.83 K2HPO4, 3.3 KH2PO4, 1.2 MgCl2, 1.2 CaCl2, 10 Glucose, 10 HEPES (pH adjusted to 7.35 with NaOH) and the apical solution contained (in mM) 145 NaGluconate, 1.2 MgCl2, 1.2 CaCl2, 10 glucose, 10 HEPES (pH adjusted to 7.35 with NaOH).
Typical protocol utilized a basolateral to apical membrane Cl^− concentration gradient. To set up this gradient, normal ringers was used on the basolateral membrane, whereas apical NaCl was replaced by equimolar sodium gluconate (titrated to pH 7.4 with NaOH) to give a large Cl^− concentration gradient across the epithelium. Modulators were added either to the basolateral side […] to assay or to the apical side during the assay. Forskolin (10 μM) was added to the apical side during the assay to stimulate CFTR-mediated Cl^− transport. […]

Data set [2] is described as follows: Metabolism of Compound 1 in vitro and in vivo. The protocol:
Compound 1 and the metabolites shown in the following table were prepared and tested.

In data set [3] the target is T1, F508del-CFTR. As to the kind of experiment: Membrane potential optical (fluorescent voltage sensing dye, FLIPR III) HTS assay for F508del-CFTR modulators. It counts as cell-based. In a few lines: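 NIH3T3 mouse fibroblasts stably expressing F508del-CFTR were seeded on matrigel-coated plates for 18–24 h at 37 °C. For correction assays they were cultured with or without compound for that period. Membrane potential was read on FLIPR III with voltage-sensing dyes, using a pH 7.4 NaCl/HEPES bath and a chloride-free gluconate substitute solution.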

For another data set, the target named is human PXR (Homo sapiens (Human), UniProt O75469). Nature of the data set: PXR assay (PXR mediated CYP3A4 induction, DPX-2 cell line). Format: cell-based. Conditions: DPX-2 cells, 48 hours, 0.1 to 60 μM. In a few lines: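 HepG2-derived DPX-2 cells stably carrying human PXR and a CYP3A4 promoter–luciferase reporter, exposed 48 h to 11 doses (0.1–60 μM); rifampicin positive control. Viability by fluorescence, then luciferase luminescence; reports max fold induction over vehicle and EC50.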
Chain of human PXR (O75469 whole entry): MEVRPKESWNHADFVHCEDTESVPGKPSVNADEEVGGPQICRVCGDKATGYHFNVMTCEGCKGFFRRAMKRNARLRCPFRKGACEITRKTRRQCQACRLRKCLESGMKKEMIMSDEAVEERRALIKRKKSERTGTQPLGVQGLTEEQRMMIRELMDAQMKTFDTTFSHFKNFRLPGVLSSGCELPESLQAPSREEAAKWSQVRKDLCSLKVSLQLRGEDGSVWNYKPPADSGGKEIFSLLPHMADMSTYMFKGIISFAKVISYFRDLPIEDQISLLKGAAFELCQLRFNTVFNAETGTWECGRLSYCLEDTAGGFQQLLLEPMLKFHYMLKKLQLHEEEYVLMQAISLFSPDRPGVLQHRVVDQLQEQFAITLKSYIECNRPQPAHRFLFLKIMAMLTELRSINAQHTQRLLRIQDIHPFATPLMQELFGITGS

The target in data set [4] is T1, F508del-CFTR. Nature of the data set: F508del-CFTR processing and trafficking in vitro (170 to 180 kDa band). It counts as cell-based. Conditions: for increase in steady-state levels, fold of untreated levels: F508del/F508del-HBE cells, 16 to 24 hours. The source says: The CFTR protein delivered to the cell surface by Compound 1 alone or in combination with Compound II (Compound I/Compound II) was potentiated by Compound III.

For orientation: AUC means concentration integrated over time. One may read the EC50 as the concentration needed to bring the measured effect to its halfway point. In the case of `C[C@@H]1CN(c2nc(-n3ccc(OCCC4(C(F)(F)F)CC4)n3)ccc2C(=O)NS(=O)(=O)c2ccccc2)C(C)(C)C1` [Compound 1, N-(benzenesulfonyl)-6-[3-[2-[1-(trifluoromethyl)cyclopropyl]ethoxy]pyrazol-1-yl]-2-[(4S)-2,2,4-trimethylpyrrolidin-1-yl]pyridine-3-carboxamide], the bioavailability in the data set “Rat IV and PO PK studies” (3 mg/kg, oral, read-out: Rat po % F) was determined as 63%. Besides, the clearance in “Rat IV and PO PK studies” (intravenous, 3.0 mg/kg, read-out: Rat iv CL) worked out at 1.6 mL/min/kg. The compound also displayed an AUC in the data set “Rat IV and PO PK studies” (oral, 3 mg/kg) of 21000 ng·h/mL. In addition, the chloride transport result at F508del-CFTR [1] is listed as “enhanced chloride transport”. Besides, on F508del-CFTR [1], the “effect on chloride transport in relation to the effect of Compound II” value is on record as “additive to the effect of Compound II”. Also, the metabolism result in data set [2] is “metabolized both in vitro and in vivo, mostly by oxidative metabolism”. Also, the EC50 on F508del-CFTR [3] (F508del NIH 3T3 cells, assay 5A-A1, read-out: CFTRdF508 EC50) is below 100 nM; on F508del-CFTR [3] (F508del NIH 3T3 cells, assay 5A-A1, read-out: EC50), below 3000 nM; on F508del-CFTR [3] (Table 7, Compound 1 and metabolites, read-out: CFTRdF508 EC50), 30 nM; on F508del-CFTR [3] (Table 9, read-out: CFTR dF508 EC50) it was 30 nM. In addition, on F508del-CFTR [3] (NIH3T3, F508del NIH 3T3 cells, relative to Compound II, read-out: % Efficacy relative to Compound II), the Emax is at least 100%. Further, the “PXR Max Induction (% of rifampicin)” value on human PXR was 3 % of rifampicin. Also, the “increase in steady-state levels, fold of untreated levels” value at F508del-CFTR [4] was found to be 6.5 fold; on F508del-CFTR [4] (Compound 1 in combination with 3 μM Compound II), 18.7 fold. The “processing and trafficking of F508del-CFTR” value on F508del-CFTR [4] (in vitro) was “improved the processing and trafficking of F508del-CFTR; also recorded: facilitates the processing and trafficking of F508del-CFTR”.
